{"source": "patent US20130149287A1", "about": "“Corticogenesis of Human Pluripotent Cells” (Cambridge Enterprise Limited, priority 2010, published 2013)", "format_in_all_cases": "cell-based, human", "key": {"[1]": {"test_system": "voltage-gated potassium channels", "assay": "Whole-cell patch-clamp recording of voltage-gated potassium currents in PSC-derived cortical neurons", "details": "step depolarizations from holding potential -80 mV to +40"}, "AMPA receptor": {"test_system": "AMPA receptor", "assay": "Whole cell patch-clamp recording of miniature excitatory post-synaptic currents (mEPSCs) in hESC/hiPSC-derived cortical neurons", "details": "hESC- and hiPSC-derived cortical neurons, cultures between days 45 and 100", "excerpt": "[…] Borosilicate glass electrodes (resistance 6-10 MΩ) were filled with an intracellular solution containing (in mM): 135 K-Gluconate, 7 NaCl, 10 Hepes, 2 Na2ATP, 0.3 Na2GTP, 2 MgCl2. Cells were viewed using a BW50WI microscope (Olympus) with infrared DIC optics. Recordings were made with a Multiclamp 700 A amplifier (Molecular Devices). Signals were filtered at 4 kHz, sampled at 20 kHz with 16-bit resolution, and analysed using Matlab (MathWorks)."}, "gamma-secretase complex": {"test_system": "gamma-secretase complex", "assay": "Sandwich ELISA of secreted Aβ40 and Aβ42 in DS cortical neuron culture supernatant under gamma-secretase inhibition", "details": "DS cortical neurons", "experimental": "Quantification of secreted Aβ40 and Aβ42 was carried out by sandwich ELISA (Invitrogen) of 50 μl of cell culture supernatant from cultures of DS, iPS control and H9 hES cortical neurons. For quantification of water-soluble and insoluble Aβ peptides, water- and formic acid-soluble protein fractions from whole cell extracts of cortical cultures were prepared and levels of each peptide measured by ELISA (Invitrogen). Inhibition of gamma-secretase was carried out in DS cortical cultures by addition of DAPT (Calbiochem) every 48 hours from day 50 of differentiation onwards."}, "[2]": {"test_system": "voltage-gated sodium channels"}, "[3]": {"test_system": "hESC and hiPSC cell lines", "assay": "Efficiency of cortical induction by percentage of Pax6-expressing cells, with or without retinoids", "details": "retinol acetate and all-trans retinol included together, with dual SMAD inhibition; two hESC and four iPSC lines", "experimental": "hESCs or iPSCs were isolated from MEFs following dissociation to single cells with Accutase (Innovative Cell Technologies) by a 1 hr pre-plate on gelatin-coated dishes in hESC medium supplemented with 10 ng/ml FGF2 and 10 μM ROCK inhibitor (Calbiochem). The non-adherent pluripotent stem cells were harvested and plated on Matrigel (BD) coated 12-well plates in MEF-conditioned hESC medium with 10 ng/ml FGF2. Once the cell culture reached 95% confluence, neural induction was initiated by changing the culture medium to a culture medium that supports neural induction, neurogenesis and neuronal differentiation (referred to as 3N medium), a 1:1 mixture of N2- and B27-containing media. N2 medium: DMEM/F12, N2 (GIBCO), 5 μg/ml Insulin, 1 mM L-Glutamine, 100 μm non-essential amino acids, 100 μM 2-mercaptoethanol, 50 U/ml Penicillin and […] Streptomycin; B27 medium: Neurobasal (Invitrogen), B27 with vitamin A (GIBCO), 200 mM Glutamine, 50 U/ml Penicillin and […] Streptomycin. […] Cells were maintained in this medium for 8-11 days, during which time the efficiency of neural induction was monitored by the appearance of cells with characteristic neuroepithelial cell morphology. […] For quantifying numbers of cells expressing specific cortical neuronal markers, cell cultures were dissociated into single cells with Accutase and resuspended at a density of 100,000 cells/ml. […]"}, "cortical rosettes": {"test_system": "cortical rosettes", "assay": "Regional identity of early-stage cortical rosettes after hedgehog signalling agonist treatment"}}, "note": "“Also recorded” adds a separate entry of the source.", "data": [{"molecule": "Nc1ccncc1", "note": "[4-AP, 4-aminopyridine]", "values": [{"measurement": "voltage-gated outward potassium current", "setting": "[1]", "result": "blocks a fast-activating transient fraction of outward K current; also recorded: a transient component of which was blocked"}]}, {"molecule": "N#Cc1cc2[nH]c(=O)c(=O)[nH]c2cc1[N+](=O)[O-]", "note": "[CNQX]", "values": [{"measurement": "appearance of mEPSCs", "setting": "AMPA receptor", "result": "blocked the appearance of mEPSCs"}]}, {"molecule": "C[C@H](NC(=O)Cc1cc(F)cc(F)c1)C(=O)N[C@H](C(=O)OC(C)(C)C)c1ccccc1", "note": "[DAPT]", "values": [{"measurement": "production/secretion of both Aβ peptides", "setting": "gamma-secretase complex; longer term 21 day gamma-secretase inhibition", "result": "undetectable levels"}, {"measurement": "production of Aβ40 and Aβ42 (secreted)", "setting": "gamma-secretase complex; short-term 4 day gamma-secretase inhibition", "result": "reduces production of both Aβ40 and Aβ42"}]}, {"molecule": "NC1=N[C@H](O)[C@H]2[C@H]3O[C@]4(O)O[C@@H]([C@@H](O)[C@@]2(N1)[C@@H]4O)[C@]3(O)CO", "note": "[TTX, tetrodotoxin]", "values": [{"measurement": "fast-activating and inactivating inward voltage-gated sodium currents", "setting": "[2]", "result": "completely blocked"}]}, {"molecule": "CC1=C(/C=C/C(C)=C/C=C/C(C)=C/CO)C(C)(C)CCC1", "note": "[all-trans retinol]", "values": [{"measurement": "cortical neural induction, Pax6 expression", "setting": "[3]", "result": "robust, efficient differentiation of all lines to cortical neural stem/progenitor cells, with almost all cells expressing Pax6"}]}, {"molecule": "c1ccc2c(Oc3nc(Nc4ccc(N5CCOCC5)cc4)c4ncn(C5CCCCC5)c4n3)cccc2c1", "note": "[purapomorphine]", "values": [{"measurement": "effect on regional identity of cortical rosettes", "setting": "cortical rosettes", "result": "ventralises the rosettes, resulting in the genesis of GAD67+ GABAergic interneurons"}]}, {"molecule": "retinol acetate", "values": [{"measurement": "cortical neural induction, Pax6 expression", "setting": "[3]", "result": "robust, efficient differentiation of all lines to cortical neural stem/progenitor cells, with almost all cells expressing Pax6"}]}]}
